Results as given in the NIST ThermoML archive (doi:10.1021/je800110r).

Settings: Liquid, Vibrating tube method

CCCCCCCCCC [decane]
Settings	mass density [kg/m3]
333.14 K, 31467 kPa	725.7
333.14 K, 31504 kPa	725.7
333.14 K, 31531 kPa	725.6
333.14 K, 31564 kPa	725.8
333.14 K, 31694 kPa	725.9
333.14 K, 31764 kPa	725.9
333.14 K, 32193 kPa	726
333.14 K, 32227 kPa	726.1
333.14 K, 32261 kPa	726.2
333.14 K, 32305 kPa	726.2
333.14 K, 32335 kPa	726.3
333.14 K, 32366 kPa	726.3
333.14 K, 32401 kPa	726.4
333.14 K, 32435 kPa	726.3
333.15 K, 358 kPa	699.5
333.15 K, 377 kPa	699.6
333.15 K, 404 kPa	699.5
333.15 K, 423 kPa	699.6
333.15 K, 440 kPa	699.5
333.15 K, 465 kPa	699.6
333.15 K, 501 kPa	699.6
333.15 K, 536 kPa	699.7
333.15 K, 563 kPa	699.6
333.15 K, 600 kPa	699.7
333.15 K, 627 kPa	699.8
333.15 K, 645 kPa	699.8
333.15 K, 672 kPa	699.8
333.15 K, 696 kPa	699.8
333.15 K, 727 kPa	699.7
333.15 K, 765 kPa	699.9
333.15 K, 1005 kPa	700.1
333.15 K, 1052 kPa	700.2
333.15 K, 1108 kPa	700.3
333.15 K, 1167 kPa	700.2
333.15 K, 1210 kPa	700.4
333.15 K, 1236 kPa	700.4
333.15 K, 1263 kPa	700.3
333.15 K, 1284 kPa	700.3
333.15 K, 1315 kPa	700.4
333.15 K, 1341 kPa	700.4
333.15 K, 1363 kPa	700.5
333.15 K, 1393 kPa	700.4
333.15 K, 1421 kPa	700.6
333.15 K, 1449 kPa	700.6
333.15 K, 1481 kPa	700.6
333.15 K, 1519 kPa	700.7
333.15 K, 1544 kPa	700.7
333.15 K, 1588 kPa	700.7
333.15 K, 1620 kPa	700.7
333.15 K, 1662 kPa	700.7
333.15 K, 1706 kPa	700.8
333.15 K, 1751 kPa	701
333.15 K, 1782 kPa	700.9
333.15 K, 1825 kPa	700.9
333.15 K, 1879 kPa	701
333.15 K, 1924 kPa	701
333.15 K, 1954 kPa	701
333.15 K, 2001 kPa	701.1
333.15 K, 2049 kPa	701.1
333.15 K, 2081 kPa	701.2
333.15 K, 2130 kPa	701.3
333.15 K, 2176 kPa	701.4
333.15 K, 2223 kPa	701.4
333.15 K, 2280 kPa	701.4
333.15 K, 2332 kPa	701.3
333.15 K, 2406 kPa	701.5
333.15 K, 2460 kPa	701.6
333.15 K, 2497 kPa	701.6
333.15 K, 2529 kPa	701.6
333.15 K, 2556 kPa	701.6
333.15 K, 2594 kPa	701.7
333.15 K, 2623 kPa	701.7
333.15 K, 2666 kPa	701.7
333.15 K, 2701 kPa	701.7
333.15 K, 2737 kPa	701.7
333.15 K, 2769 kPa	701.8
333.15 K, 2837 kPa	701.9
333.15 K, 3106 kPa	702.2
333.15 K, 3141 kPa	702.3
333.15 K, 3150 kPa	702.3
333.15 K, 3174 kPa	702.3
333.15 K, 3195 kPa	702.3
333.15 K, 3232 kPa	702.3
333.15 K, 3264 kPa	702.3
333.15 K, 3283 kPa	702.4
333.15 K, 3311 kPa	702.4
333.15 K, 3335 kPa	702.4
333.15 K, 3368 kPa	702.4
333.15 K, 3387 kPa	702.5
333.15 K, 3414 kPa	702.4
333.15 K, 3444 kPa	702.5
333.15 K, 3468 kPa	702.5
333.15 K, 3500 kPa	702.6
333.15 K, 3528 kPa	702.6
333.15 K, 3556 kPa	702.7
333.15 K, 3593 kPa	702.6
333.15 K, 3622 kPa	702.7
333.15 K, 3651 kPa	702.7
333.15 K, 3678 kPa	702.8
333.15 K, 3717 kPa	702.7
333.15 K, 3736 kPa	702.8
333.15 K, 3769 kPa	702.8
333.15 K, 3790 kPa	702.8
333.15 K, 3823 kPa	702.8
333.15 K, 3870 kPa	703
333.15 K, 3903 kPa	703
333.15 K, 3934 kPa	703
333.15 K, 3970 kPa	703
333.15 K, 3998 kPa	703.2
333.15 K, 4018 kPa	703.1
333.15 K, 4043 kPa	703.1
333.15 K, 4068 kPa	703.1
333.15 K, 4097 kPa	703.1
333.15 K, 4127 kPa	703.1
333.15 K, 4159 kPa	703.3
333.15 K, 4185 kPa	703.1
333.15 K, 4204 kPa	703.1
333.15 K, 4227 kPa	703.2
333.15 K, 4258 kPa	703.3
333.15 K, 4277 kPa	703.4
333.15 K, 4305 kPa	703.4
333.15 K, 4337 kPa	703.5
333.15 K, 4365 kPa	703.4
333.15 K, 4394 kPa	703.5
333.15 K, 4422 kPa	703.5
333.15 K, 4448 kPa	703.5
333.15 K, 4474 kPa	703.6
333.15 K, 4505 kPa	703.5
333.15 K, 4527 kPa	703.6
333.15 K, 4547 kPa	703.5
333.15 K, 4580 kPa	703.6
333.15 K, 4599 kPa	703.6
333.15 K, 4631 kPa	703.7
333.15 K, 4657 kPa	703.7
333.15 K, 4686 kPa	703.7
333.15 K, 4710 kPa	703.6
333.15 K, 4738 kPa	703.8
333.15 K, 4760 kPa	703.6
333.15 K, 4781 kPa	703.9
333.15 K, 4846 kPa	703.9
333.15 K, 4874 kPa	704
333.15 K, 4903 kPa	703.9
333.15 K, 4957 kPa	704.1
333.15 K, 4981 kPa	704.1
333.15 K, 5033 kPa	704.1
333.15 K, 5058 kPa	704
333.15 K, 5078 kPa	704.2
333.15 K, 5105 kPa	704.2
333.15 K, 5125 kPa	704.1
333.15 K, 5153 kPa	704.1
333.15 K, 5182 kPa	704.1
333.15 K, 5207 kPa	704.3
333.15 K, 5223 kPa	704.3
333.15 K, 5253 kPa	704.2
333.15 K, 5272 kPa	704.3
333.15 K, 5288 kPa	704.2
333.15 K, 5306 kPa	704.4
333.15 K, 5324 kPa	704.3
333.15 K, 5342 kPa	704.4
333.15 K, 5361 kPa	704.3
333.15 K, 5380 kPa	704.3
333.15 K, 5399 kPa	704.4
333.15 K, 5413 kPa	704.4
333.15 K, 5434 kPa	704.4
333.15 K, 5450 kPa	704.5
333.15 K, 5470 kPa	704.5
333.15 K, 5498 kPa	704.5
333.15 K, 5514 kPa	704.6
333.15 K, 5530 kPa	704.6
333.15 K, 5548 kPa	704.5
333.15 K, 5567 kPa	704.7
333.15 K, 5637 kPa	704.6
333.15 K, 5652 kPa	704.6
333.15 K, 5669 kPa	704.7
333.15 K, 5690 kPa	704.7
333.15 K, 5721 kPa	704.7
333.15 K, 5735 kPa	704.7
333.15 K, 6140 kPa	705.1
333.15 K, 6164 kPa	705
333.15 K, 6191 kPa	705.1
333.15 K, 6212 kPa	705.1
333.15 K, 6234 kPa	705.2
333.15 K, 6252 kPa	705.2
333.15 K, 6280 kPa	705.2
333.15 K, 6299 kPa	705.2
333.15 K, 6323 kPa	705.2
333.15 K, 6345 kPa	705.3
333.15 K, 6367 kPa	705.3
333.15 K, 6389 kPa	705.2
333.15 K, 6418 kPa	705.4
333.15 K, 6437 kPa	705.3
333.15 K, 6464 kPa	705.3
333.15 K, 6483 kPa	705.4
333.15 K, 6513 kPa	705.5
333.15 K, 6533 kPa	705.4
333.15 K, 6560 kPa	705.5
333.15 K, 6595 kPa	705.5
333.15 K, 6622 kPa	705.6
333.15 K, 6882 kPa	705.7
333.15 K, 6909 kPa	705.8
333.15 K, 6935 kPa	705.8
333.15 K, 6958 kPa	706
333.15 K, 6985 kPa	705.9
333.15 K, 7028 kPa	705.9
333.15 K, 7059 kPa	706
333.15 K, 7087 kPa	706
333.15 K, 7110 kPa	706
333.15 K, 7135 kPa	705.9
333.15 K, 7164 kPa	706
333.15 K, 7188 kPa	706
333.15 K, 7209 kPa	706.1
333.15 K, 7243 kPa	706
333.15 K, 7268 kPa	706.2
333.15 K, 7306 kPa	706.1
333.15 K, 7344 kPa	706.2
333.15 K, 8096 kPa	706.9
333.15 K, 8122 kPa	706.9
333.15 K, 8147 kPa	707
333.15 K, 8166 kPa	707
333.15 K, 8186 kPa	707
333.15 K, 8211 kPa	707
333.15 K, 8236 kPa	707
333.15 K, 8262 kPa	707
333.15 K, 8292 kPa	707
333.15 K, 8315 kPa	707
333.15 K, 8335 kPa	707
333.15 K, 8358 kPa	707
333.15 K, 8381 kPa	707.2
333.15 K, 8505 kPa	707.3
333.15 K, 8536 kPa	707.2
333.15 K, 8561 kPa	707.4
333.15 K, 8613 kPa	707.4
333.15 K, 8638 kPa	707.3
333.15 K, 8740 kPa	707.4
333.15 K, 8795 kPa	707.5
333.15 K, 8818 kPa	707.7
333.15 K, 8851 kPa	707.6
333.15 K, 8872 kPa	707.6
333.15 K, 8900 kPa	707.6
333.15 K, 8924 kPa	707.6
333.15 K, 9353 kPa	708
333.15 K, 9380 kPa	708.2
333.15 K, 9411 kPa	708.1
333.15 K, 9435 kPa	708.2
333.15 K, 9465 kPa	708.1
333.15 K, 9493 kPa	708.1
333.15 K, 9570 kPa	708.3
333.15 K, 9598 kPa	708.2
333.15 K, 9623 kPa	708.2
333.15 K, 9648 kPa	708.3
333.15 K, 9680 kPa	708.2
333.15 K, 9709 kPa	708.3
333.15 K, 9849 kPa	708.4
333.15 K, 9874 kPa	708.5
333.15 K, 9908 kPa	708.6
333.15 K, 9931 kPa	708.6
333.15 K, 9958 kPa	708.6
333.15 K, 9981 kPa	708.6
333.15 K, 10004 kPa	708.6
333.15 K, 10023 kPa	708.6
333.15 K, 10054 kPa	708.6
333.15 K, 10081 kPa	708.7
333.15 K, 10109 kPa	708.7
333.15 K, 10145 kPa	708.8
333.15 K, 10175 kPa	708.9
333.15 K, 10207 kPa	708.8
333.15 K, 10231 kPa	708.8
333.15 K, 10260 kPa	708.8
333.15 K, 10298 kPa	708.9
333.15 K, 10331 kPa	708.7
333.15 K, 10354 kPa	708.9
333.15 K, 10384 kPa	709
333.15 K, 10403 kPa	708.9
